Measured values: patent US20040223967A1, “Blood coagulation factor-activating protein and antibody thereto” (RIKEN, priority 2000, published 2004)
Values joined by “and” are separate entries in the source; they are usually repeats but may differ in a detail not shown here. Equal values may be shown once. Read-outs that look alike come from different tables or passages of the source.

T1: F-IX-activating enzyme (Homo sapiens, UniProt P08246)
T1 construct: 1-219; from tissue; host or cells: erythrocyte membranes (crude surfactant extract)
T1 sequence (P08246 30-248): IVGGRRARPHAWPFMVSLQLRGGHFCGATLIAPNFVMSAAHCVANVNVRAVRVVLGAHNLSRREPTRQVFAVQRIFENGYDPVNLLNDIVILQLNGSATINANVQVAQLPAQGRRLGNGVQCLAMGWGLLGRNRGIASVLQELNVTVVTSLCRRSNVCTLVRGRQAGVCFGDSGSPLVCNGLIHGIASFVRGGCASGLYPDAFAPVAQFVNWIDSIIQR

T2: factor IX-activating protein (erythrocyte membrane extract) (Homo sapiens, UniProt P08246)
T2 construct: 1-219; from tissue; host or cells: erythrocyte membranes (surfactant extract / chromatography fractions)
T2 sequence (P08246 30-248): T1 sequence (P08246 30-248)

B1: soybean trypsin inhibitor (protein)
chain: DFVLDNEGNPLENGGTYYILSDITAFGGIRAAPTGNERCPLTVVQSRNELDKGIGTIISSPYRIRFIAEGHPLSLKFDSFAVIMLCVGIPTEWSVVEDLPEGPAVKIGENKDAMDGWFRLERVSDDEFNNYKLVFCPQQAEDDKCGDIGISIDHDDGTRRLVVSKNKPLVVQFQKLDKESL

Assays:
F-IX-activating enzyme = biological target: T1, F-IX-activating enzyme; assay: Assay of inhibitor effect: fluorogenic substrate Suc(OMe)-Ala-Ala-Pro-Val-MCA with crude enzyme extract; type: biochemical
Method: Relative activity of the enzyme is a ratio of the fluorogenic intensity of the mixture of a fluorogenic synthetic substrate (Suc(OME)-Ala-Ala-Pro-Val-MCA), specific for elastase, the enzyme and inhibitor or antibody to that of the mixture of the fluorogenic substrate and enzyme not containing inhibitor or antibody (control).
To measure the fluorescence intensity of a mixture of inhibitor and the enzyme or elastase, 3 μl of 2 mM fluorogenic synthetic substrate, 2 μl of the enzyme or elastase (concentration: 0.5 mU) and inhibitor or antibody were added to 190 μl HEPES buffer. After incubating the mixture for 30 min at 37° C., 100 μl of the incubated mixture was added to 2 ml of HEPES buffer and the fluorescence intensity was measured using a fluorescence spectrophotometer at λex=380 nm and λem=460 nm.
In the experiments, a crude extract with enzymatic activity, before subjecting to anion-exchange chromatography, was used.

[1] = biological target: T2, factor IX-activating protein (erythrocyte membrane extract); assay: Activation of factor IX by the erythrocyte membrane extract, examined by SDS-PAGE; type: biochemical; conditions: inhibitor added to solution containing the extract
Method: 25 μg of pure factor IX (Enzyme Res. Lab.) was dissolved in 50 μl of HEPES buffer, and was mixed with washed erythrocytes (hematocrit: about 40%). 10 μl of 26 mM CaCl2 was added to the suspension, and the mixture was incubated at 37° C. for 30 minutes, and then 30 μl of 0.1 M EDTA was added to the suspension to stop the reaction. The suspension was centrifuged to completely remove erythrocytes, and the supernatant was subjected to SDS-PAGE and Western blot analysis to examine whether the coagulation factor was activated or not. 7.5 to 15% gradient gel was used, and electrophoresis was performed at a constant current of 20 mA in the presence of 0.1% SDS. Protein bands were stained for 3 hours with a 50% ethanol (v/v)/7% acetic acid solution containing 0.25% (w/v) Coomassie brilliant blue R-250 (CBB). When activated factor IX was detected by SDS-PAGE, immunostaining was performed to confirm that the resulting band was of activated coagulation factor IX. In the immunostaining procedures, the gel subjected to electrophoresis was buffered using Towbin buffer (25 mM Tris-HCl (pH 8.3), 192 mM glycin, 20% (v/v) methanol, 0.1% SDS) for 15 minutes, followed by transferring to a polyvinylidene difluoride (PVDF) membrane under conditions of 15V and 150 mA. […]

[2] = material concentration 1 mM, 30 min at 37° C., control without material = 100.0

Molecule | Relative activity of the enzyme (%) (F-IX-activating enzyme; [2]) | other results
[Ca+2].[Cl-].[Cl-] [CaCl2] | 156.4 | –
O=C(O)CN(CCN(CC(=O)O)CC(=O)O)CC(=O)O [EDTA, reference compound] | 74.5 | Relative activity of the enzyme (%) (F-IX-activating enzyme; material concentration 10 mM, 30 min at 37° C., control without material = 100.0): 27.0%
CC(=O)N[C@@H](CC(C)C)C(=O)N[C@@H](CC(C)C)C(=O)N[C@H](C=O)CCCNC(=N)N [Leupeptin, reference compound] | 78.5 | –
[Cl-].[Cl-].[Mg+2] [MgCl2] | 100.5 | –
[Cl-].[Na+] [NaCl] | – | Relative activity of the enzyme (%) (F-IX-activating enzyme): 95.5% and 84.3%
O=S(=O)(F)Cc1ccccc1 [PMSF, reference compound] | 19.2 | –
c1cnc2c(c1)ccc1cccnc12 [Phenanthroline, reference compound] | 28.8 | –
B1 | – | Relative activity of the enzyme (%) (F-IX-activating enzyme; material concentration 1%, 30 min at 37° C., control without material = 100.0): 65.1%; activation of factor IX by the extract [1]: inhibited
